As usually defined, the GI50 is the concentration at which growth is held to half of that of the control. A word on the TGI: it is the concentration giving total growth inhibition. A high value points to less potent growth arrest.

Some test systems named below: SF-268 CNS; UACC-257 melanoma; LOX IMVI melanoma; TK-10 renal; MDA-MB-435; PC-3 prostate; SW-620 colon; NCI-H522 lung; SK-MEL-28 melanoma; OVCAR-4 ovarian.
What all share (assay): DTP human tumour cell line panel, 48 h

Where “and” joins values, the source holds several entries; their conditions need not be identical. Identical values can stand only once.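 Interpolation was linear, between the two tested concentrations surrounding the appropriate level; five concentrations were tested over 48 hours in 96-well plates. GI50 = concentration required for 50% inhibition of growth. The concentration for full growth arrest is given as TGI.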

Take `O=C(Nc1cccc(-n2cc(-c3ccncc3)c(-c3ccc(O)c(Cl)c3)n2)c1)c1cc(C(F)(F)F)cc(C(F)(F)F)c1`: the GI50 in the test with SF-268 CNS was 7.26 µM; with UACC-257 melanoma it was 16.1 µM; with LOX IMVI melanoma, 1.86 µM; in the test on TK-10 renal it was 10.9 µM; with MDA-MB-435, 4.43 µM; in the test with PC-3 prostate, 2.17 µM. The GI50 with SW-620 colon is 12.2 µM; in the test with NCI-H522 lung it was 1.56 µM; with SK-MEL-28 melanoma it was 10.3 µM; with OVCAR-4 ovarian, 3.31 µM. The TGI with SF-268 CNS, with UACC-257 melanoma, with LOX IMVI melanoma, in the test with TK-10 renal, in the test with MDA-MB-435 and in the test with PC-3 prostate was over 50 µM each time. For the same compound, the TGI is over 50 µM in the test with SW-620 colon, 12.3 µM with NCI-H522 lung, over 50 µM in the test with SK-MEL-28 melanoma and over 50 µM with OVCAR-4 ovarian.

Regarding `COc1ccc2nc3cc([N+](=O)[O-])ccc3c(NNc3ccccc3)c2c1`, the GI50 in the test with SF-268 CNS is 7.35 µM; in the test with UACC-257 melanoma it was 17.3 µM; in the test with LOX IMVI melanoma, 14.5 µM; in the test with TK-10 renal, 12.1 µM; in the test with MDA-MB-435, 13.4 µM; in the test on PC-3 prostate, 10.4 µM. The GI50 is 19.8 µM in the test on SW-620 colon, 2.4 µM in the test with NCI-H522 lung, 15.3 µM in the test on SK-MEL-28 melanoma and 11.6 µM in the test with OVCAR-4 ovarian. In addition, the TGI in the test on SF-268 CNS was 30.8 µM and > 100 µM; in the test with UACC-257 melanoma it was 51.5 µM and > 100 µM; in the test with LOX IMVI melanoma it was over 100 µM; with TK-10 renal it was 30 µM and > 100 µM; with MDA-MB-435, 35.3 µM and > 100 µM; in the test on PC-3 prostate it was 40.4 µM and > 100 µM. The TGI is over 100 µM with SW-620 colon; 18.5 µM and 50.9 µM in the test with NCI-H522 lung; 34.9 µM and > 100 µM in the test with SK-MEL-28 melanoma; 36.1 µM and > 100 µM with OVCAR-4 ovarian.

Consider `C[C@@H](NC(=O)c1ncnc(N)c1Cl)c1ncc(C(=O)Nc2cc(C(F)(F)F)c(Cl)cn2)s1`, for which the GI50 is 26.8 µM in the test on SF-268 CNS; 0.478 µM in the test with UACC-257 melanoma; 3.32 µM in the test on LOX IMVI melanoma; 19.6 µM in the test on TK-10 renal; 2.27 µM in the test on MDA-MB-435; 25.3 µM in the test on PC-3 prostate. Also, the GI50 with SW-620 colon was 11 µM; with NCI-H522 lung, 13.5 µM; with SK-MEL-28 melanoma, 0.696 µM; with OVCAR-4 ovarian, 20.7 µM. Further, the total growth inhibition concentration (TGI) is over 71.6 µM in the test with SF-268 CNS; 4.77 µM in the test on UACC-257 melanoma; 54 µM in the test on LOX IMVI melanoma; 46.6 µM in the test with TK-10 renal; 34.3 µM in the test with MDA-MB-435; over 76.6 µM with PC-3 prostate. Moreover, the TGI in the test on SW-620 colon is over 75.5 µM; in the test with NCI-H522 lung, 34.3 µM; in the test on SK-MEL-28 melanoma, 15.8 µM; in the test with OVCAR-4 ovarian, 73.3 µM.

Turning to `NC1=NC(=O)/C(=C/c2ccc3ncccc3c2)S1`, the GI50 was over 25 µM in the test on SF-268 CNS; over 25 µM in the test on UACC-257 melanoma; over 25 µM with LOX IMVI melanoma; over 25 µM in the test with TK-10 renal; over 10.9 µM with MDA-MB-435; over 25 µM in the test with PC-3 prostate. For the same compound, the GI50 in the test on SW-620 colon is over 25 µM; in the test on NCI-H522 lung it was over 18.4 µM; in the test with SK-MEL-28 melanoma, over 25 µM; in the test on OVCAR-4 ovarian it was over 25 µM. The TGI in the test on SF-268 CNS, in the test with UACC-257 melanoma, in the test with LOX IMVI melanoma, in the test on TK-10 renal, in the test on MDA-MB-435 and in the test on PC-3 prostate was over 25 µM in each case. The TGI in the test on SW-620 colon, in the test on NCI-H522 lung, in the test on SK-MEL-28 melanoma and in the test on OVCAR-4 ovarian was over 25 µM in each case.

`Cc1ccc(NC(=O)Nc2c(Cl)cccc2Cl)cn1`: the GI50 is 14.5 µM with SF-268 CNS; 71.4 µM in the test with UACC-257 melanoma; 21.3 µM with LOX IMVI melanoma; 18.1 µM with TK-10 renal; 1.96 µM with MDA-MB-435; 25.2 µM in the test on PC-3 prostate. The GI50 in the test on SW-620 colon was 4.24 µM; in the test on NCI-H522 lung it was 12.5 µM; in the test on SK-MEL-28 melanoma it was 58.2 µM; with OVCAR-4 ovarian, 65 µM. Also, the TGI is over 100 µM in the test on SF-268 CNS; over 100 µM in the test on UACC-257 melanoma; over 100 µM in the test on LOX IMVI melanoma; 41.6 µM with TK-10 renal; 4.69 µM in the test with MDA-MB-435; over 100 µM in the test with PC-3 prostate. Further, the concentration for total growth inhibition (TGI) in the test on SW-620 colon was over 100 µM; in the test with NCI-H522 lung, 44 µM; in the test on SK-MEL-28 melanoma it was over 100 µM; in the test with OVCAR-4 ovarian, over 100 µM.

For the compound `O=c1ccc(=O)n(-c2ccccc2)[nH]1`, the TGI in the test with SF-268 CNS, in the test on UACC-257 melanoma, in the test on LOX IMVI melanoma, with TK-10 renal, with MDA-MB-435 and with PC-3 prostate was over 100 µM throughout. In addition, the TGI in the test on SW-620 colon, with NCI-H522 lung, with SK-MEL-28 melanoma and in the test with OVCAR-4 ovarian was over 100 µM each time.

With `C=C1C(=O)O[C@H]2[C@H]1CC/C(Cn1cc(-c3cccc(Cl)c3)nn1)=C\CC[C@@]1(C)O[C@@H]21`, the GI50 was 1.59 µM with SF-268 CNS; 1.42 µM in the test with UACC-257 melanoma; 0.285 µM in the test with LOX IMVI melanoma; 0.992 µM in the test on TK-10 renal; 0.591 µM in the test with MDA-MB-435; 1.98 µM in the test with PC-3 prostate. The GI50 in the test on SW-620 colon is 0.33 µM; in the test with NCI-H522 lung, 0.291 µM; with SK-MEL-28 melanoma, 0.351 µM; in the test on OVCAR-4 ovarian, 1.09 µM. Besides, the TGI with SF-268 CNS amounted to 3.46 µM; in the test with UACC-257 melanoma, 2.8 µM; with LOX IMVI melanoma, 0.898 µM; in the test with TK-10 renal it was 2.15 µM; with MDA-MB-435 it was 1.98 µM; with PC-3 prostate, 3.77 µM. Also, the TGI in the test on SW-620 colon stood at 1.2 µM; with NCI-H522 lung it was 1.09 µM; in the test with SK-MEL-28 melanoma, 1.27 µM; in the test with OVCAR-4 ovarian, 2.44 µM.

Regarding `CN(C)Cc1ccc(C(C)(C)C)cc1-c1cc(C(C)(C)C)ccc1CN(C)C`, the total growth inhibition concentration (TGI) in the test with SF-268 CNS was over 100 µM; with UACC-257 melanoma it was 51.7 µM; in the test with LOX IMVI melanoma, over 100 µM; in the test on TK-10 renal it was over 100 µM; in the test on MDA-MB-435, over 100 µM; in the test with PC-3 prostate, over 100 µM. The TGI in the test with SW-620 colon, in the test with NCI-H522 lung, in the test on SK-MEL-28 melanoma and in the test on OVCAR-4 ovarian was over 100 µM in each case.

The values above are taken from PubChem BioAssay (NCI).
